{"source": "paper PMC10294657", "about": "“The dCache Domain of the Chemoreceptor Tlp1 in Campylobacter jejuni Binds and Triggers Chemotaxis toward Formate” (mBio, 2023)", "target": "T1, Tlp1 (Cj1506c), Tlp1-LBD (Campylobacter jejuni, UniProt Q0P8B2)", "T1 construct": "Tlp1-LBD (residues 31 to 326), dCache domain", "T1 sequence (Q0P8B2 entry or part of it)": "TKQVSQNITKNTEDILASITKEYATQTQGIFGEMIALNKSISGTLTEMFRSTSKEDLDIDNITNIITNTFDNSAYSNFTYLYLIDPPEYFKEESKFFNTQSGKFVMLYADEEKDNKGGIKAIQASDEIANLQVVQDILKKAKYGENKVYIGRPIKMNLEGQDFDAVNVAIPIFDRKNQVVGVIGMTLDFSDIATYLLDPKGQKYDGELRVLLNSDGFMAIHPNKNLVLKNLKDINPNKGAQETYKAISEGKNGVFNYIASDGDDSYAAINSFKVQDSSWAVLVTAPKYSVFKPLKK", "experiment": "ITC with purified Tlp1-LBD, pH […]°C", "format": "binding", "data": [{"smiles": "O=CO", "note": "[formate]", "values": [{"measurement": "Kd", "result": "245 ± 74", "unit": "µM"}]}]}
